Data published in US20060205743A1, “Protein kinase inhibitors” (priority 2003, published 2006).

Biological target: MAPKAP-K2 (Homo sapiens, UniProt P49137)
Test: MAPKAP-Kinase 2 Assay (33P-ATP peptide phosphorylation, filter plate)
Type: biochemical
Set-up: key: +: active; ++: more active; +++: very active
Details: assays conducted at typically 1-100 μM
Description: MAPKAP-Kinase 2 Assay [Compound Preparation]
Compounds are dissolved in DMSO at a concentration of 3 mM and stored in aliquots at −20° C. Compounds in DMSO from these stock aliquots are diluted in 30% DMSO to produce initial working stock solutions of 1 mM and 3 mM. Both of these stock solutions are then subjected to 1:10 serial dilutions in 30% DMSO in order to prepare 3000, 1000, 300, 100, 30, 10, 3, 1, 0.1, 0.01 μM stock solutions. 5 μl of each stock solution is used per 50 μl reaction to give final assay concentrations of 300, 100, 30, 10, 3, 1, 0.3, 0.1, 0.01, 0.001 μM.
The kinase reaction is conducted in a round-bottomed polypropylene 96-well plate. MAPKAP-K2 is diluted to 25 mU/μl in diluent buffer (50 mM Tris/HCl. pH7.5, 0.1 mM EGTA, 0.1% (v/v) β-mercaptoethanol, 1 mg/ml BSA). 5 μl compound or 30% DMSO is added to each well followed by 25 μl substrate cocktail (10 μM ATP, 30 μM peptide (KKLNRTLSVA), 0.5 μCi ^33P-γ-ATP in 50 mM Tris pH7.5, 0.1 mM EGTA, 10 mM Mg-acetate, 0.1% BME). The reaction is initiated with the addition of 20 μl enzyme solution per well or 20 μl diluent buffer without enzyme. The plate is shaken for 10 sec and then left at room temperature for 30 min. The reaction is terminated with 50 μl 150 mM phosphoric acid. 90 μl of the reaction mixture is then transferred into a 96-well P81 filter plate (Millipore) and incubated at room temperature for 5 min. The filter plate is then washed 4 times with 200 μl 75 mM phosphoric acid per well on a plate vacuum manifold (Millipore) and dried in an oven for 2-3 h. Packard MicroScint ‘0’ (30 μl) is then added to each well, the plate is mixed for 30 min and subjected to liquid scintillation counting on a Packard TopCount.
[Interpretation] %Control=(X−B)/(Tot−B)×100 %Inhibition=100−% Control X=cpm of the test compound wells B=cpm of wells without enzyme Tot=cpm of wells with DMSO vehicle only

Sequence of MAPKAP-K2 (P49137 whole entry): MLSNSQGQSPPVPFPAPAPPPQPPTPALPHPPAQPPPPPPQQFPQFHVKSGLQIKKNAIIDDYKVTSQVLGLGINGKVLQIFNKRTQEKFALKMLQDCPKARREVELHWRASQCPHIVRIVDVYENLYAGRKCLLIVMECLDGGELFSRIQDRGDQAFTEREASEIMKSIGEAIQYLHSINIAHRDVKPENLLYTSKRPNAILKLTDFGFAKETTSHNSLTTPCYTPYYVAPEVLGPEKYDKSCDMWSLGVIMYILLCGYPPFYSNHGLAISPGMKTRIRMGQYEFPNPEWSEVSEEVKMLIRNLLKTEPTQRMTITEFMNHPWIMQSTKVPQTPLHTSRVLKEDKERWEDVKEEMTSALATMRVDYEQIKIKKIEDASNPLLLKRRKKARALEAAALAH

MAPKAP-K2 activity	SMILES
+++	N[C@H]1CC[C@H](Nc2cc(Nc3cccc(OC(F)(F)F)c3)n3nccc3n2)CC1 [Compound 63]
+++	N[C@H]1CC[C@H](Nc2cc(Nc3cccc(OCc4ccccc4)c3)n3nccc3n2)CC1 [Compound 64]
+++	CCOc1cccc(Nc2cc(N[C@H]3CC[C@H](N)CC3)nc3ccnn23)c1 [Compound 65]
+++	N[C@H]1CC[C@H](Nc2cc(Nc3ccccc3F)n3nccc3n2)CC1 [Compound 66]
+++	N[C@H]1CC[C@H](Nc2cc(Nc3cccc(Cl)c3Cl)n3nccc3n2)CC1 [Compound 67]
+++	N[C@H]1CC[C@H](Nc2cc(Nc3cc(Cl)ccc3Cl)n3nccc3n2)CC1 [Compound 68]
+++	N[C@H]1CC[C@H](Nc2cc(Nc3c(Cl)cccc3Cl)n3nccc3n2)CC1 [Compound 69]
+++	N[C@H]1CC[C@H](Nc2cc(Nc3ccc(O)cc3)n3nccc3n2)CC1 [Compound 70]
++	N[C@H]1CC[C@H](Nc2cc(NCc3ccccc3Cl)n3nccc3n2)CC1 [Compound 71]
++	NC1CCCN(c2cc(Nc3ccc(F)c(Cl)c3)n3nccc3n2)C1 (stereo not shown) [Compound 72]
++	Fc1ccc(Nc2cc(NC3CCNC3)nc3ccnn23)cc1Cl (stereo not shown) [Compound 73]
+++	Fc1ccc(Nc2cc(NC3CCCNC3)nc3ccnn23)cc1Cl (stereo not shown) [Compound 74]
+++	Cc1ccc(C)c(Nc2cc(N[C@H]3CC[C@H](N)CC3)nc3ccnn23)c1 [Compound 75]
+++	Cc1cccc(Nc2cc(N[C@H]3CC[C@H](N)CC3)nc3ccnn23)c1C [Compound 76]
+++	Cc1ccc(Nc2cc(N[C@H]3CC[C@H](N)CC3)nc3ccnn23)cc1C [Compound 77]
+	NCCCCNc1cc(Nc2ccc(F)c(Cl)c2)n2nccc2n1 [Compound 78]
++	N#C/N=C(\N)NC1CCC(Nc2cc(Nc3ccc(F)c(Cl)c3)n3nccc3n2)CC1 (stereo not shown) [Compound 79]
+	CN(CCN)c1cc(Nc2ccc(F)c(Cl)c2)n2nccc2n1 [Compound 80]
+	Fc1ccc(Nc2cc(N3CCNCC3)nc3ccnn23)cc1Cl [Compound 81]
+	NC1CCN(c2cc(Nc3ccc(F)c(Cl)c3)n3nccc3n2)C1 (stereo not shown) [Compound 82]
+++	N[C@H]1CC[C@H](Nc2cc(Nc3cccc(Br)c3)n3nccc3n2)CC1 [Compound 83]
+++	NC1CCC(Nc2cc(Nc3ccc(Br)cc3)n3nccc3n2)CC1 (stereo not shown) [Compound 84]
+++	NC1CCC(Nc2cc(Nc3ccc(I)cc3)n3nccc3n2)CC1 (stereo not shown) [Compound 85]
++	CNCCNc1cc(Nc2ccc(F)c(Cl)c2)n2nccc2n1 [Compound 86]

MAPKAP-K2 activity	SMILES
+++	CN[C@H]1CC[C@H](Nc2cc(Nc3ccc(F)c(Cl)c3)n3nccc3n2)CC1 [Compound 87]
++	Fc1ccc(Nc2cc(NC3CCNCC3)nc3ccnn23)cc1Cl [Compound 88]
+++	CCN[C@H]1CC[C@H](Nc2cc(Nc3ccc(F)c(Cl)c3)n3nccc3n2)CC1 [Compound 89]
++	N[C@H]1CC[C@H](Nc2cc(NCc3ccccn3)n3nccc3n2)CC1 [Compound 90]
+++	NC1CCC(Nc2cc(Nc3ccc(C(F)(F)F)cc3Cl)n3nccc3n2)CC1 (stereo not shown) [Compound 91]
++	NC1CCC(Nc2cc(Nc3ccccc3C(F)(F)F)n3nccc3n2)CC1 (stereo not shown) [Compound 93]
+	NCCCNc1cc(Nc2ccc(F)c(Cl)c2)n2nccc2n1 [Compound 94]
+	NC1CCN(c2cc(Nc3ccc(F)c(Cl)c3)n3nccc3n2)CC1 [Compound 95]
++	COc1ccccc1Nc1cc(NC2CCCNC2)nc2ccnn12 (stereo not shown) [Compound 96]
+++	COc1cccc(Nc2cc(NC3CCCNC3)nc3ccnn23)c1 (stereo not shown) [Compound 97]
+++	c1ccc(COc2cccc(Nc3cc(NC4CCCNC4)nc4ccnn34)c2)cc1 (stereo not shown) [Compound 98]
+++	COc1ccc(Cl)c(Nc2cc(NC3CCC(N)CC3)nc3ccnn23)c1 (stereo not shown) [Compound 99]
+++	NC1CCC(Nc2cc(Nc3ccccc3I)n3nccc3n2)CC1 (stereo not shown) [Compound 101]
+++	NC1CCC(Nc2cc(Nc3ccccc3Br)n3nccc3n2)CC1 (stereo not shown) [Compound 102]
++	COc1ccc(Nc2cc(NC3CCC(N)CC3)nc3ccnn23)c(OC)c1OC (stereo not shown) [Compound 103]
+++	CCCCOc1ccc(Nc2cc(NC3CCC(N)CC3)nc3ccnn23)cc1 (stereo not shown) [Compound 104]
+++	CCOc1cccc(Nc2cc(NC3CCCNC3)nc3ccnn23)c1 (stereo not shown) [Compound 105]
+++	Ic1ccc(Nc2cc(NC3CCCNC3)nc3ccnn23)cc1 (stereo not shown) [Compound 106]
+++	NC1CCC(Nc2cc(Nc3ccc(OC(F)(F)F)cc3Cl)n3nccc3n2)CC1 (stereo not shown) [Compound 107]
+++	NC1CCC(Nc2cc(Nc3ccc(F)cc3Cl)n3nccc3n2)CC1 (stereo not shown) [Compound 108]
+++	NC1CCC(Nc2cc(Nc3c(F)cccc3F)n3nccc3n2)CC1 (stereo not shown) [Compound 109]
++	C#CC(C)(C)Nc1cc(NC2CCC(N)CC2)nc2ccnn12 (stereo not shown) [Compound 111]
+++	COc1ccc(Nc2cc(NC3CCC(N)CC3)nc3ccnn23)c(F)c1 (stereo not shown) [Compound 112]
+++	CC(C)Oc1ccc(Nc2cc(NC3CCC(N)CC3)nc3ccnn23)c(F)c1 (stereo not shown) [Compound 113]

MAPKAP-K2 activity	SMILES
++	COc1ccc(Nc2cc(NC3CCC(N)CC3)nc3ccnn23)c(C)c1 (stereo not shown) [Compound 114]
+++	CC(C)=CCCC(C)=CCNc1cc(NC2CCC(N)CC2)nc2ccnn12 (stereo not shown) [Compound 115]
+	NCCNc1cc(Nc2ccc(F)c(Cl)c2)n2nccc2n1 [Compound 116]
+	Fc1ccc(Nc2cc(NC3CCC(NCc4ccccc4)CC3)nc3ccnn23)cc1Cl (stereo not shown) [Compound 120]
++	Fc1ccc(Nc2cc(NC3CCC(NCCc4ccccc4)CC3)nc3ccnn23)cc1Cl (stereo not shown) [Compound 121]
++	Fc1ccc(Nc2cc(NC3CCC(NCCCc4ccccc4)CC3)nc3ccnn23)cc1Cl (stereo not shown) [Compound 124]
++	CCCCCNC1CCC(Nc2cc(Nc3ccc(F)c(Cl)c3)n3nccc3n2)CC1 (stereo not shown) [Compound 125]
+	Fc1ccc(Nc2cc(NC3CCC(NCC4CCCCC4)CC3)nc3ccnn23)cc1Cl (stereo not shown) [Compound 126]
++	Fc1ccc(Nc2cc(NC3CCC(NCC4CCOC4)CC3)nc3ccnn23)cc1Cl (stereo not shown) [Compound 127]
++	Fc1ccc(Nc2cc(NC3CCC(NCc4ccoc4)CC3)nc3ccnn23)cc1Cl (stereo not shown) [Compound 128]
++	Fc1ccc(Nc2cc(NC3CCC(NCc4ccsc4)CC3)nc3ccnn23)cc1Cl (stereo not shown) [Compound 129]
+	CCC(CC)CNC1CCC(Nc2cc(Nc3ccc(F)c(Cl)c3)n3nccc3n2)CC1 (stereo not shown) [Compound 130]
++	Fc1ccc(Nc2cc(NC3CCC(NCCCCc4ccccc4)CC3)nc3ccnn23)cc1Cl (stereo not shown) [Compound 131]
++	Fc1ccc(Nc2cc(NC3CCC(NCCCCCc4ccccc4)CC3)nc3ccnn23)cc1Cl (stereo not shown) [Compound 132]
++	Fc1ccc(Nc2cc(NC3CCC(NC4CCCCC4)CC3)nc3ccnn23)cc1Cl (stereo not shown) [Compound 134]
++	CC(C)NC1CCC(Nc2cc(Nc3ccc(F)c(Cl)c3)n3nccc3n2)CC1 (stereo not shown) [Compound 135]
+++	CN1CCC(N[C@H]2CC[C@H](Nc3cc(Nc4ccc(F)c(Cl)c4)n4nccc4n3)CC2)CC1 [Compound 136]
+	CC(CN(C)C)N[C@H]1CC[C@H](Nc2cc(Nc3ccc(F)c(Cl)c3)n3nccc3n2)CC1 (stereo partly shown) [Compound 137]
+	Fc1ccc(Nc2cc(N[C@H]3CC[C@H](NC4CCC(c5ccccc5)CC4)CC3)nc3ccnn23)cc1Cl (stereo partly shown) [Compound 138]
+++	CCOc1ccc(Nc2cc(NC3CCCNC3)nc3ccnn23)cc1 (stereo not shown) [Compound 139]
+++	Ic1cccc(Nc2cc(NC3CCCNC3)nc3ccnn23)c1 (stereo not shown) [Compound 140]
+++	Fc1ccccc1Nc1cc(NC2CCCNC2)nc2ccnn12 (stereo not shown) [Compound 141]
